Tests used:
NAMPT = NAMPT (Homo sapiens (Human), UniProt P43490); assay: Biochemical Inhibition Assay (NAMPT enzymatic reaction, NMN quantified by mass spectrometry); conditions: recombinant His-tagged NAMPT, 33 nM; 1 μM NAM; read-out: Biochem IC50
Experimental: Recombinant His-tagged NAMPT was produced in E. coli cells, purified over a Ni column, and further purified over a size-exclusion column by XTAL Biostructures.
The NAMPT enzymatic reactions were carried out in Buffer A (50 mM Hepes pH 7.5, 50 mM NaCl, 5 mM MgCl2, and 1 mM THP) in 96-well V-bottom plates. The compound titrations were performed in a separate dilution plate by serially diluting the compounds in DMSO to make a 100× stock. […] The compound and enzyme mix was incubated for 15 minutes at room temperature, then 10 μL of 10× substrate and co-factors in Buffer A were added to the test well to make a final concentration of 1 μM NAM, 100 μM 5-Phospho-D-ribose 1-diphosphate (PRPP), and 2.5 mM Adenosine 5′-triphosphate (ATP). The reaction was allowed to proceed for 30 minutes at room temperature, then was quenched with the addition of 11 μL of a solution of formic acid and L-Cystathionine to make a final concentration of 1% formic acid and 10 μM L-Cystathionine. Background and signal strength was determined by addition (or non-addition) of a serial dilution of NMN to a pre-quenched enzyme and cofactor mix.
A mass spectrometry-based assay was used to measure the NAMPT reaction product (NMN) and the internal control (L-Cystathionine). NMN and L-Cystathionine were detected using the services of Biocius Lifesciences with the RapidFire system. In short, the NMN and L-Cystathionine are bound to a graphitic carbon cartridge in 0.1% formic acid, eluted in 30% acetonitrile buffer, and injected into a Sciex 4000 mass spectrometer. The components of the sample were ionized with electrospray ionization and the positive ions were detected. […] The fragments are quantified and the analyzed by the following method.
First the NMN signal is normalized to the L-Cystathionine signal by dividing the NMN signal by the L-Cystathionine signal for each well. The signal from the background wells are averaged and subtracted from the test plates.
Wherein x denotes the average signal of the compound treated wells and y denotes the average signal of the DMSO treated wells.
IC50s are Determined Using Excel and this Formula.
Wherein X denotes the compound concentration 1, Y denotes the compound concentration 2, XX denotes the % inhibition at compound concentration 1 (X), and YY denotes the % inhibition at compound concentration 2 (Y).

A2780 cells = assay: In-Vitro Cell Proliferation Assay (SRB, 72 hours); format: cell-based; conditions: Homo sapiens, A2780, 72 h, A2780 cells, 72 hours, sulforhodamine B; read-out: A2780 IC50
Experimental: After overnight incubation at 37° C. and 5% CO2, the compound titrations were performed in a separate dilution plate by serially diluting the compounds in DMSO to make a 1000× stock. The compounds were then further diluted to 10× final concentration in culture media, whereupon 20 μL of each dilution was added to the plated cells with controls (e.g. DMSO and blank) to make a final volume of 200 μL. The final DMSO concentration in each well was 0.1%. The plates were then incubated for 72 hours at 37° C. in a 5% CO2 incubator. The number of viable cells was then assessed using sulforhodamine B (SRB) assay. Cells were fixed at 4° C. for 1 hour with the addition of 50 μL 30% trichloroacetic acid (TCA) to make a final concentration of 6% TCA. The plates were washed four times with H2O and allowed to dry for at least 1 hour, whereupon 100 μL of a 4% SRB in 1% acetic acid solution was added to each well and incubated at room temperature for at least 30 minutes. The plates were then washed three times with 1% acetic acid, dried, and treated with 100 μL of 10 mM Tris-Base solution. The plates were then read in a microplate reader at an absorbance of 570 nm. Background was generated on a separate plate with media only.
First, the signals from the background plate are averaged and then the background was subtracted from the test plates.
wherein x denotes the average signal of the compound-treated cells and y denotes the average signal of the DMSO-treated cells.
wherein X denotes the compound concentration 1, Y denotes the compound concentration 2, XX denotes the % inhibition at compound concentration 1 (X), and YY denotes the % inhibition at compound concentration 2 (Y).

Chain of NAMPT (P43490 whole entry): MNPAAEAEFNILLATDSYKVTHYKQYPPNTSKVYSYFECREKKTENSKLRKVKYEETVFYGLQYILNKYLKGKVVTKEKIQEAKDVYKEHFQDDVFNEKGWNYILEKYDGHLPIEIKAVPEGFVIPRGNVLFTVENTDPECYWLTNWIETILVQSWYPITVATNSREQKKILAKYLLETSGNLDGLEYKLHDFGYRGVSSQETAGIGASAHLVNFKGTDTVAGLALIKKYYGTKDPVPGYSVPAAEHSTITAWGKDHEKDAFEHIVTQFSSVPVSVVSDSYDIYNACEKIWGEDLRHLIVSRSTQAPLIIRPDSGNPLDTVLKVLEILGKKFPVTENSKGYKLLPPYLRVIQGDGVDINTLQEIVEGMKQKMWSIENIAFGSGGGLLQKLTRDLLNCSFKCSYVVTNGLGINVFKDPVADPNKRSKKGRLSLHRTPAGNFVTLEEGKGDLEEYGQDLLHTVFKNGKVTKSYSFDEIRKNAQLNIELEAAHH

| SMILES | IC50 (NAMPT) [nM] | IC50 (A2780 cells) [nM] |
| --- | --- | --- |
| COCc1cccc(S(=O)(=O)c2ccc(NC(=O)/C=C/c3cccnc3)cc2)c1 [(2E)-N-(4-{[3-(methoxymethyl)benzene]sulfonyl}phenyl)-3-(pyridin-3-yl)prop-2-enamide] | 7.7 | 78 |
| O=C(/C=C/c1cccnc1)Nc1ccc(S(=O)(=O)c2cccc(N3CCOCC3)c2)cc1 [(2E)-N-(4-{[3-(morpholin-4-yl)benzene]sulfonyl}phenyl)-3-(pyridin-3-yl)prop-2-enamide] | 9.2 | 30.3 |
| CC(C)Oc1cccc(S(=O)(=O)c2ccc(NC(=O)/C=C/c3cccnc3)cc2)c1 [(2E)-N-(4-{[3-(propan-2-yloxy)benzene]sulfonyl}phenyl)-3-(pyridin-3-yl)prop-2-enamide] | 1.1 | 48.9 |
| O=C(/C=C/c1cccnc1)Nc1ccc(S(=O)(=O)c2ccc(C(F)(F)F)c(Cl)c2)cc1 [(2E)-N-(4-{[3-chloro-4-(trifluoromethyl)benzene]sulfonyl}phenyl)-3-(pyridin-3-yl)prop-2-enamide] | 43.4 | 100 to 1000 |
| O=C(/C=C/c1cccnc1)Nc1ccc(S(=O)(=O)c2cc(Cl)cc(C(F)(F)F)c2)cc1 [(2E)-N-(4-{[3-chloro-5-(trifluoromethyl)benzene]sulfonyl}phenyl)-3-(pyridin-3-yl)prop-2-enamide] | 8.1 | 58.3 |
| CC(C)COc1cc(F)cc(S(=O)(=O)c2ccc(NC(=O)/C=C/c3cccnc3)cc2)c1 [(2E)-N-(4-{[3-fluoro-5-(2-methylpropoxy)benzene]sulfonyl}phenyl)-3-(pyridin-3-yl)prop-2-enamide] | 35.4 | 61.3 |
| O=C(/C=C/c1cccnc1)Nc1ccc(S(=O)(=O)c2ccc(-n3cccn3)cc2)cc1 [(2E)-N-(4-{[4-(1H-pyrazol-1-yl)benzene]sulfonyl}phenyl)-3-(pyridin-3-yl)prop-2-enamide] | 17.4 | 71.7 |
| CCOCc1ccc(S(=O)(=O)c2ccc(NC(=O)/C=C/c3cccnc3)cc2)cc1 [(2E)-N-(4-{[4-(ethoxymethyl)benzene]sulfonyl}phenyl)-3-(pyridin-3-yl)prop-2-enamide] | 7.8 | 100 to 1000 |
| O=C(/C=C/c1cccnc1)Nc1ccc(S(=O)(=O)c2ccc(N3CCOCC3)cc2)cc1 [(2E)-N-(4-{[4-(morpholin-4-yl)benzene]sulfonyl}phenyl)-3-(pyridin-3-yl)prop-2-enamide] | 24.8 | 55.3 |
| CC(C)Oc1ccc(S(=O)(=O)c2ccc(NC(=O)/C=C/c3cccnc3)cc2)cc1 [(2E)-N-(4-{[4-(propan-2-yloxy)benzene]sulfonyl}phenyl)-3-(pyridin-3-yl)prop-2-enamide] | 5.4 | 91.5 |
| O=C(/C=C/c1cccnc1)Nc1ccc(S(=O)(=O)c2ccc(Cl)c(C(F)(F)F)c2)cc1 [(2E)-N-(4-{[4-chloro-3-(trifluoromethyl)benzene]sulfonyl}phenyl)-3-(pyridin-3-yl)prop-2-enamide] | 18.4 | 122 |
| O=C(/C=C/c1cccnc1)Nc1ccc(S(=O)(=O)c2cccc3ccsc23)cc1 [(2E)-N-[4-(1-benzothiophene-7-sulfonyl)phenyl]-3-(pyridin-3-yl)prop-2-enamide] | 16.1 | 106 |
| Cn1ncc2cc(S(=O)(=O)c3ccc(NC(=O)/C=C/c4cccnc4)cc3)ccc21 [(2E)-N-[4-(1-methyl-1H-indazole-5-sulfonyl)phenyl]-3-(pyridin-3-yl)prop-2-enamide] | 1.9 | 97.6 |
| Cn1ncc2cccc(S(=O)(=O)c3ccc(NC(=O)/C=C/c4cccnc4)cc3)c21 [(2E)-N-[4-(1-methyl-1H-indazole-7-sulfonyl)phenyl]-3-(pyridin-3-yl)prop-2-enamide] | 8.9 | 100 to 1000 |
| Cn1c(S(=O)(=O)c2ccc(NC(=O)/C=C/c3cccnc3)cc2)cc2ccccc21 [(2E)-N-[4-(1-methyl-1H-indole-2-sulfonyl)phenyl]-3-(pyridin-3-yl)prop-2-enamide] | 21.8 | 100 to 1000 |
| Cn1cc(S(=O)(=O)c2ccc(NC(=O)/C=C/c3cccnc3)cc2)cn1 [(2E)-N-[4-(1-methyl-1H-pyrazole-4-sulfonyl)phenyl]-3-(pyridin-3-yl)prop-2-enamide] | 7.7 | 100 to 1000 |
| CCCn1cc(S(=O)(=O)c2ccc(NC(=O)/C=C/c3cccnc3)cc2)cn1 [(2E)-N-[4-(1-propyl-1H-pyrazole-4-sulfonyl)phenyl]-3-(pyridin-3-yl)prop-2-enamide] | 2.6 | 20.8 |
| O=C(/C=C/c1cccnc1)Nc1ccc(S(=O)(=O)c2cccc3[nH]ccc23)cc1 [(2E)-N-[4-(1H-indole-4-sulfonyl)phenyl]-3-(pyridin-3-yl)prop-2-enamide] | 2.3 | 40.1 |
| O=C(/C=C/c1cccnc1)Nc1ccc(S(=O)(=O)c2cccc3cc[nH]c23)cc1 [(2E)-N-[4-(1H-indole-7-sulfonyl)phenyl]-3-(pyridin-3-yl)prop-2-enamide] | 8.4 | 13.3 |
| O=C(/C=C/c1cccnc1)Nc1ccc(S(=O)(=O)c2cccc3c2OCC3)cc1 [(2E)-N-[4-(2,3-dihydro-1-benzofuran-7-sulfonyl)phenyl]-3-(pyridin-3-yl)prop-2-enamide] | 4.9 | 36.1 |
| Cc1ncccc1S(=O)(=O)c1ccc(NC(=O)/C=C/c2cccnc2)cc1 [(2E)-N-[4-(2-methylpyridine-3-sulfonyl)phenyl]-3-(pyridin-3-yl)prop-2-enamide] | 9 | 100 to 1000 |
| O=C(/C=C/c1cccnc1)Nc1ccc(S(=O)(=O)c2cccc3c2OCO3)cc1 [(2E)-N-[4-(2H-1,3-benzodioxole-4-sulfonyl)phenyl]-3-(pyridin-3-yl)prop-2-enamide] | 16.1 | 75.1 |
| O=C(/C=C/c1cccnc1)Nc1ccc(S(=O)(=O)c2ccc3c(c2)OCO3)cc1 [(2E)-N-[4-(2H-1,3-benzodioxole-5-sulfonyl)phenyl]-3-(pyridin-3-yl)prop-2-enamide] | 9.9 | 100 to 1000 |
| Cc1ccncc1S(=O)(=O)c1ccc(NC(=O)/C=C/c2cccnc2)cc1 [(2E)-N-[4-(4-methylpyridine-3-sulfonyl)phenyl]-3-(pyridin-3-yl)prop-2-enamide] | 20.4 | 100 to 1000 |
| COc1cncc(S(=O)(=O)c2ccc(NC(=O)/C=C/c3cccnc3)cc2)c1 [(2E)-N-[4-(5-methoxypyridine-3-sulfonyl)phenyl]-3-(pyridin-3-yl)prop-2-enamide] | 15.6 | 86.3 |
| Cc1cncc(S(=O)(=O)c2ccc(NC(=O)/C=C/c3cccnc3)cc2)c1 [(2E)-N-[4-(5-methylpyridine-3-sulfonyl)phenyl]-3-(pyridin-3-yl)prop-2-enamide] | 18.1 | 74.4 |
| Cc1ccc(S(=O)(=O)c2ccc(NC(=O)/C=C/c3cccnc3)cc2)s1 [(2E)-N-[4-(5-methylthiophene-2-sulfonyl)phenyl]-3-(pyridin-3-yl)prop-2-enamide] | 16.6 | 100 to 1000 |
| O=C(/C=C/c1cccnc1)Nc1ccc(S(=O)(=O)c2ccccc2)cc1 [(2E)-N-[4-(benzenesulfonyl)phenyl]-3-(pyridin-3-yl)prop-2-enamide] | 4 | 81 |
| O=C(/C=C/c1cccnc1)Nc1ccc(S(=O)(=O)c2cncc3ccccc23)cc1 [(2E)-N-[4-(isoquinoline-4-sulfonyl)phenyl]-3-(pyridin-3-yl)prop-2-enamide] | 2.45 | 21.7 |

Source: US9169209B2, “Compounds and compositions for the inhibition of NAMPT” (FORMA TM, LLC, priority 2011, dated 2015)
